Key:
Format in all cases: cell-based
[1] = test system: cat iris sphincter (prostamide E2 response); experiment: Cat iris sphincter contraction: antagonism of prostamide E2 response; settings: isolated cat iris sphincter, contractile response relative to 1×10^−7 M PGF2α, 30 min antagonist incubation; FIG. 4
Procedure: (§1) The compounds of Examples 1 and 2 were tested for prostamide antagonist activity as follows:
(§2) The smooth muscle tension of isolated tissue preparations was measured isometrically with force displacement transducers (Grass FT-03) and recorded on a Grass polygraph (Model 7G). The organ baths contained Krebs solution maintained at 37° C. and gassed with 95% O2: 5% CO2 to give a pH of 7.4. The Krebs solution had the following composition (mM): NaCl, 118.0; KCl, 4.7; KH2PO4, 1.2; CaCl2, 1.9; MgSO4, 1.18; NaHCO3, 25.0; glucose, 11.7; indomethacin, 0.001.
(§3) Adult domestic cats were sacrificed by intravenous overdose of sodium pentobarbitol (Anthony, Arcadia, Calif., USA). The eyes were enucleated immediately and placed on ice. The iris sphincter from each eye was dissected to provide two strips ˜3 mm wide and 15-20 mm long. The sphincter muscle was mounted vertically under 50 mg tension in a jacketed 10 ml organ bath. A 60 min. equilibration period was allowed before commencing each experiment. The response to 1×10^−7 M PGF2α was determined at the beginning of each experiment as a reference. After complete washout, and return to baseline tension, tissues were allowed to re-equilibrate for 30 min. Antagonist or vehicle were then added. […] Activity of test compounds was determined as contractile responses and expressed relative to the reference standard 1×10^−7 M PGF2α.

[2] = test system: cat iris sphincter (PGE2 response); experiment: Cat iris sphincter contraction: effect on PGE2 response; settings: isolated cat iris sphincter, contractile response relative to 1×10^−7 M PGF2α, 30 min antagonist incubation; FIG. 4
Procedure: as §1, §2, §3

[3] = test system: cat iris sphincter (PGF2α response); experiment: Cat iris sphincter contraction: effect on PGF2α response; settings: isolated cat iris sphincter, contractile response relative to 1×10^−7 M PGF2α, 30 min antagonist incubation; FIG. 1, FIG. 2
Procedure: as §1, §2, §3

[4] = test system: cat iris sphincter (prostamide D2 response); experiment: Cat iris sphincter contraction: antagonism of prostamide D2 response; settings: isolated cat iris sphincter, contractile response relative to 1×10^−7 M PGF2α, 30 min antagonist incubation; FIG. 3
Procedure: as §1, §2, §3

[5] = test system: cat iris sphincter (PGD2 response); experiment: Cat iris sphincter contraction: effect on PGD2 response; settings: isolated cat iris sphincter, contractile response relative to 1×10^−7 M PGF2α, 30 min antagonist incubation; FIG. 3
Procedure: as §1, §2, §3

[6] = test system: cat iris sphincter (prostamide F2α response); experiment: Cat iris sphincter contraction: antagonism of prostamide F2α response; settings: isolated cat iris sphincter, contractile response relative to 1×10^−7 M PGF2α, 30 min antagonist incubation; FIG. 1, FIG. 2
Procedure: as §1, §2, §3

| Structure (SMILES) | prostamide E2 antagonist activity (effect on response curve of prostamide E2) [1] | effect on response curve of PGE2 [2] | effect on response curve of PGF2α [3] | prostamide D2 antagonist activity (effect on response curve of prostamide D2) [4] | effect on response curve of PGD2 [5] | prostamide F2α antagonist activity (effect on response curve of prostamide F2α) [6] |
| --- | --- | --- | --- | --- | --- | --- |
| CCNC(=O)CCc1ccc(F)cc1CC1C2CCC(O2)C1c1nc(C(=O)NCCCCC2CCCCC2)co1 (centres unmarked) [Example 1, 2-{3-[2-(2-Ethylcarbamoyl-ethyl)-5-fluoro-benzyl]-7-oxa-bicyclo[2.2.1]hept-2-yl}-oxazole-4-carboxylic acid (4-cyclohexyl-butyl)-amide] | displaces the response curve | does not effect the response curve | does not effect the response curve | displaces the response curve | does not effect the response curve | displaces the response curve |
| O=C(CCc1ccc(F)cc1CC1C2CCC(O2)C1c1nc(C(=O)NCCCCC2CCCCC2)co1)NCCO (centres unmarked) [Example 2, 2-(3-{5-Fluoro-2-[2-(2-hydroxy-ethycarbamoyl)-ethyl]-benzyl}-7-oxa-bicyclo[2.2.1]hept-2-yl)-oxazole-4-carboxylic acid (4-cyclohexyl-butyl)-amide] |  |  | does not effect the response curve |  |  | displaces the response curve |

Source: patent US20060106078A1, “Prostamide receptor antagonists” (Allergan, Inc., priority 2003, published 2006)
